Assay results: US12616740B2, “Methods of using a GIP/GLP1 co-agonist for therapy” (ELI LILLY AND COMPANY, priority 2018, dated 2026)

What was measured:
[1] = NCT03131687: weight loss at Week 26; format: in vivo, human
Protocol: (§1) Clinical Study (NCT03131687) Supporting Maintenance Dose Embodiments A 6-month (26-week) Phase 2 double-blind clinical study is designed to evaluate the safety, efficacy, and PK/PD of 4 dose levels (1 mg, 5 mg, 10 mg and 15 mg respectively) of tirzepatide once weekly by subcutaneous injection compared with dulaglutide 1.5 mg. once weekly (QW) and placebo QW in patients with T2DM who have inadequate glycemic control with diet and exercise with or without a stable dose of metformin. Tirzepatide dose is up-titrated to the maintenance dose using the following weekly dose increments:
(§2) The study also has a 4-week follow up period. In addition to safety and efficacy for treating T2DM, efficacy endpoints include the effect of tirzepatide on HbA1c, FBG, body weight, lipids, and waist circumference compared with placebo and with dulaglutide 1.5 mg. The study also evaluates the effect of tirzepatide on GI tolerability, hypoglycemia, hypersensitivity reactions, and pancreatic safety, as well as the development of treatment-emergent anti-drug antibodies. Model-based dose response analyses are performed to predict potential for significant HbA1c lowering and weight loss in longer studies. Statistical Analyses: Efficacy: The primary efficacy outcome of HbA1c change from baseline to the 26-week endpoint is analyzed using a Bayesian dose-response model. Analyses are performed on the intention to treat population (mITT) analysis set. Supportive analysis of the primary efficacy outcome for the mITT dataset are the model for post-baseline measures (MMRM) with body mass index (BMI) (<30 kg/m^2, ≥30 kg/m^2), metformin use, treatment, visit, and treatment-by-visit interaction as fixed effects, baseline HbA1c as a covariate, and patient as a random effect. The mean weight change from baseline at 12 and 26 weeks, along with the mean change from baseline of HbA1c at 12 weeks, is analyzed using similar dose-response models as the primary analyses. The percentages of patients with ≥5% or ≥10% body weight loss, reaching the HbA1c target of ≤6.5% or ≤7.0% at 26 weeks, or requiring rescue therapy are analyzed using logistic regression with fixed effects of treatment and strata, and baseline as a covariate. The changes from baseline in FBG (fasting blood glucose), SMBG (self-monitored blood glucose) levels, waist circumference, and mean percentage change in lipids from baseline to 12 and 26 weeks are analyzed using a similar MMRM to the one used for the primary analyses. Table Abbreviations: Dula 1.5 mg=dulaglutide 1.5 mg once weekly; LY means tirzepatide, and LY 1 mg=tirzepatide 1 mg once weekly; LY 5 mg=5 mg once weekly; LY 10 mg=escalation dose group tirzepatide once weekly with highest dose of 10 mg; LY 15 mg=escalation dose group of tirzepatide once weekly with highest dose 15 mg; LOCF=last observation-carried-forward; N=number of patients; pbo=placebo; Week 26=mITT on-treatment data at Week 26 excluding data after study drug discontinuation or rescue drug initiation; mITT=modified intent-to-treat; SD=standard deviation. For Table 4, n=number of patients in the population with baseline and post-baseline value at the specified time point. For Table 6, LY10 mg=escalation dose group tirzepatide, once weekly with highest dose of 10 mg; escalation dose: (5 mg weeks 0 and 1), LY15 mg=escalation dose group tirzepatide, once weekly with highest dose of 15 mg; escalation dose: (5 mg weeks 0 and 1; 10 mg weeks 2 to 5); N=number of patients in specified group, m=number of patients who experienced new event during interval, FolUp=follow up, T/Wk=Time range, (week) and %=means percent patients spending at least some time in treatment group who experienced new event during interval. For Table 7, n is the number of patients with events meeting the criteria; N is number of patients in the population; % is percent of patients in treatment group experiencing the event.

[2] = tested on: patients with T2DM who have inadequate glycemic control; assay: Phase 2 clinical study NCT03131687 (26 weeks): patients reaching HbA1c target; format: in vivo, human
Protocol: as §1, §2

[3] = LY 1 mg = tirzepatide 1 mg once weekly, LOCF
[4] = LY 1 mg = tirzepatide 1 mg once weekly, second line, analysis set not given (not LOCF)
[5] = LY 5 mg = tirzepatide 5 mg once weekly, LOCF
[6] = LY 5 mg = tirzepatide 5 mg once weekly, second line, analysis set not given (not LOCF)
[7] = LY 10 mg = tirzepatide once weekly, highest dose 10 mg, LOCF
[8] = LY 10 mg = tirzepatide once weekly, highest dose 10 mg, second line, analysis set not given (not LOCF)
[9] = LY 15 mg = tirzepatide once weekly, highest dose 15 mg, LOCF
[10] = LY 15 mg = tirzepatide once weekly, highest dose 15 mg, second line, analysis set not given (not LOCF)
[11] = LY 5 mg = tirzepatide 5 mg once weekly, LOCF Week 26 (N = 55)
[12] = LY 5 mg = tirzepatide 5 mg once weekly, mITT Week 26 (N = 48)
[13] = LY 10 mg = tirzepatide once weekly, escalation to highest dose 10 mg, LOCF Week 26 (N = 51)
[14] = LY 10 mg = tirzepatide once weekly, escalation to highest dose 10 mg, mITT Week 26 (N = 44)
[15] = LY 15 mg = tirzepatide once weekly, escalation to highest dose 15 mg, LOCF Week 26 (N = 53)
[16] = LY 15 mg = tirzepatide once weekly, escalation to highest dose 15 mg, mITT Week 26 (N = 35)

tirzepatide [LY]
body weight change from baseline (in words) ([1]; 5 mg, 10 mg, and 15 mg doses of tirzepatide, significantly different from placebo and dulaglutide 1.5 mg): significantly decrease body weight from baseline
% of Patients Achieving Weight loss ≥10% [1, 3]: 5.8%
odds ratio vs. placebo, Weight loss ≥10% [1, 3]: 7.1
% of Patients Achieving Weight loss ≥10% [1, 4]: 6.8%
% of Patients Achieving Weight loss ≥15% [1, 4]: 0%
odds ratio vs. placebo, Weight loss ≥10% [1, 4]: 6.7
% of Patients Achieving Weight loss ≥10% [1, 5]: 16.4%
odds ratio vs. placebo, Weight loss ≥10% [1, 5]: 20.8
% of Patients Achieving Weight loss ≥10% [1, 6]: 16.7%
% of Patients Achieving Weight loss ≥15% [1, 6]: 6.3%
odds ratio vs. placebo, Weight loss ≥10% [1, 6]: 17.2
% of Patients Achieving Weight loss ≥10% [1, 7]: 39.2%
odds ratio vs. placebo, Weight loss ≥10% [1, 7]: 67.6
% of Patients Achieving Weight loss ≥10% [1, 8]: 45.5%
% of Patients Achieving Weight loss ≥15% [1, 8]: 25.0%
odds ratio vs. placebo, Weight loss ≥10% [1, 8]: 71.7
% of Patients Achieving Weight loss ≥10% [1, 9]: 37.7%
odds ratio vs. placebo, Weight loss ≥10% [1, 9]: 66.2
% of Patients Achieving Weight loss ≥10% [1, 10]: 54.3%
% of Patients Achieving Weight loss ≥15% [1, 10]: 34.3%
odds ratio vs. placebo, Weight loss ≥10% [1, 10]: 109.2
HbA1c change from baseline (in words) ([2]; 5 mg, 10 mg, and 15 mg doses of tirzepatide, significantly different from placebo and from dulaglutide 1.5 mg): significantly decrease HbA1c from baseline
% of Patients Reaching HbA1c Target <5.7% [2, 11]: 3.6%
% of Patients Reaching HbA1c Target <6% [2, 11]: 25.5%
odds ratio vs. placebo, Patients Reaching HbA1c Target <5.7% [2, 11]: 1.6
odds ratio vs. placebo, Patients Reaching HbA1c Target <6% [2, 11]: 11.8
% of Patients Reaching HbA1c Target <5.7% [2, 12]: 4.3%
% of Patients Reaching HbA1c Target <6% [2, 12]: 23.4%
odds ratio vs. placebo, Patients Reaching HbA1c Target <5.7% [2, 12]: 1.7
odds ratio vs. placebo, Patients Reaching HbA1c Target <6% [2, 12]: 10.5
% of Patients Reaching HbA1c Target <5.7% [2, 13]: 18.0%
% of Patients Reaching HbA1c Target <6% [2, 13]: 46.0%
odds ratio vs. placebo, Patients Reaching HbA1c Target <5.7% [2, 13]: 7.8
odds ratio vs. placebo, Patients Reaching HbA1c Target <6% [2, 13]: 28.7
% of Patients Reaching HbA1c Target <5.7% [2, 14]: 20.9%
% of Patients Reaching HbA1c Target <6% [2, 14]: 51.2%
odds ratio vs. placebo, Patients Reaching HbA1c Target <5.7% [2, 14]: 7.9
odds ratio vs. placebo, Patients Reaching HbA1c Target <6% [2, 14]: 34.5
% of Patients Reaching HbA1c Target <5.7% [2, 15]: 30.2%
% of Patients Reaching HbA1c Target <6% [2, 15]: 37.7%
odds ratio vs. placebo, Patients Reaching HbA1c Target <5.7% [2, 15]: 14.4
odds ratio vs. placebo, Patients Reaching HbA1c Target <6% [2, 15]: 22.0
% of Patients Reaching HbA1c Target <5.7% [2, 16]: 42.9%
% of Patients Reaching HbA1c Target <6% [2, 16]: 54.3%
odds ratio vs. placebo, Patients Reaching HbA1c Target <5.7% [2, 16]: 26.6
odds ratio vs. placebo, Patients Reaching HbA1c Target <6% [2, 16]: 48.7
